Values quoted from earlier work in PubChem BioAssay AID1259409 (Chemical Carcinogenesis Research Information System (CCRIS), 2018).

System: rodent chemically induced tumor inhibition, incidence and multiplicity
Assay: CCRIS tumor inhibitor studies
Details: Dose [Inhibitor]: 0, Promoter: NONE USED

## Cn1c(=O)c2c(ncn2C)n(C)c1=O
Carcinogen: 7,12-DIMETHYLBENZ[A]ANTHRACENE, 57-97-6, 500 MG/L IN DRINKING WATER OF 58 DAY OLD VIRGIN RATS (STUDY DURATION: 56 WK), Route [Inhibitor]: ORAL, Species: RAT, Strain/Sex: SPRAGUE-DAWLEY/FEMALE, Target Tissue: Type of Lesion: MAMMARY GLAND: FIBROADENOMA, Dose [Carcinogen]: 2 MG/100 G BW ONCE AT 55 D OF AGE
  tumour outcome (control, treated, inhibition, significance): 86%, 68%, 21%, not significant
Carcinogen: 7,12-DIMETHYLBENZ[A]ANTHRACENE, 57-97-6, 500 MG/L IN DRINKING WATER OF 150 DAY OLD PAROUS RATS (STUDY DURATION: 165 D), Route [Inhibitor]: ORAL, Species: RAT, Strain/Sex: SPRAGUE-DAWLEY/FEMALE, Target Tissue: Type of Lesion: MAMMARY GLAND: CARCINOMA, Dose [Carcinogen]: 20 MG/ML IN CORN OIL ONCE AT 135 D OF AGE
  tumour outcome (control, treated, inhibition, significance): 21%, 3%, 86%, not calculated
Carcinogen: 7,12-DIMETHYLBENZ[A]ANTHRACENE, 57-97-6, 500 MG/L IN DRINKING WATER OF 150 DAY OLD PAROUS RATS (STUDY DURATION: 165 D), Route [Inhibitor]: ORAL, Species: RAT, Strain/Sex: SPRAGUE-DAWLEY/FEMALE, Target Tissue: Type of Lesion: MAMMARY GLAND: FIBROADENOMA, Dose [Carcinogen]: 20 MG/ML IN CORN OIL ONCE AT 135 D OF AGE
  tumour outcome (control, treated, inhibition, significance): 62%, 40%, 35%, not significant
Carcinogen: 7,12-DIMETHYLBENZ[A]ANTHRACENE, 57-97-6, 500 MG/L IN DRINKING WATER OF 150 DAY OLD VIRGIN RATS (STUDY DURATION: 165 D), Route [Inhibitor]: ORAL, Species: RAT, Strain/Sex: SPRAGUE-DAWLEY/FEMALE, Target Tissue: Type of Lesion: MAMMARY GLAND: CARCINOMA, Dose [Carcinogen]: 20 MG/ML IN CORN OIL ONCE AT 135 D OF AGE
  tumour outcome (control, treated, inhibition, significance): 45%, 20%, 56%, p<0.05
Carcinogen: 7,12-DIMETHYLBENZ[A]ANTHRACENE, 57-97-6, 500 MG/L IN DRINKING WATER OF 150 DAY OLD VIRGIN RATS (STUDY DURATION: 165 D), Route [Inhibitor]: ORAL, Species: RAT, Strain/Sex: SPRAGUE-DAWLEY/FEMALE, Target Tissue: Type of Lesion: MAMMARY GLAND: FIBROADENOMA, Dose [Carcinogen]: 20 MG/ML IN CORN OIL ONCE AT 135 D OF AGE
  tumour outcome (control, treated, inhibition, significance): 72%, 43%, 40%, p<0.05
Carcinogen: 17BETA-ESTRADIOL, 50-28-2, PROGESTERONE, 57-83-0, Carcinogen: 17BETA-ESTRADIOL, 50-28-2, PROGESTERONE, 57-83-0, 500 MG/L IN DISTILLED DRINKING WATER FOR 23 WK BEGINNING 1 WK POST FIRST CARCINOGEN DOSE (STUDY DURATION: 24 WK), Route [Inhibitor]: ORAL, Species: MOUSE, Strain/Sex: GR/A/FEMALE, Target Tissue: Type of Lesion: MAMMARY GLAND: TUMOR, Dose [Carcinogen]: 0.5 MG/L 17BETA-ESTRADIOL IN DRINKING WATER FOR 24 WK AND 30 MG PROGESTERONE IN PELLETS RENEWED EVERY 30 D FOR 24 WK
  tumour outcome (control, treated, inhibition, significance): 55/55 (100%), 52/55 (95%), 5%, not significant
Carcinogen: 17BETA-ESTRADIOL, 50-28-2, PROGESTERONE, 57-83-0, Carcinogen: 17BETA-ESTRADIOL, 50-28-2, PROGESTERONE, 57-83-0, 500 MG/L IN DISTILLED DRINKING WATER FOR 23 WK BEGINNING 1 WK POST FIRST CARCINOGEN DOSE (STUDY DURATION: 24 WK), Route [Inhibitor]: ORAL, Species: MOUSE, Strain/Sex: GRS/SN/FEMALE, Target Tissue: Type of Lesion: MAMMARY GLAND: TUMOR, Dose [Carcinogen]: 0.5 MG/L 17BETA-ESTRADIOL IN DRINKING WATER FOR 24 WK AND 30 MG PROGESTERONE IN PELLETS RENEWED EVERY 30 D FOR 24 WK
  tumour outcome (control, treated, inhibition, significance): 46/47 (98%), 44/45 (98%), 0%, not significant
Carcinogen: BENZO[A]PYRENE, 50-32-8, 1 MG/D FOR 6 WK (STUDY DURATION: 9 WK), Route [Inhibitor]: GAVAGE, Species: MOUSE, Strain/Sex: NIGP(S)/FEMALE, Target Tissue: Type of Lesion: LUNG: ADENOMA, Dose [Carcinogen]: 0.5 MG INJECTED IN THE SCAPULAR REGION OF NEWBORN MICE ONCE
  tumour outcome (control, treated, inhibition, significance): 35%, 21%, 40%, not calculated
Carcinogen: BENZO[A]PYRENE, 50-32-8, 1 MG/D FOR 6 WK (STUDY DURATION: 9 WK), Route [Inhibitor]: GAVAGE, Species: MOUSE, Strain/Sex: NIGP(S)/MALE, Target Tissue: Type of Lesion: LUNG: ADENOMA, Dose [Carcinogen]: 0.5 MG INJECTED IN THE SCAPULAR REGION OF NEWBORN MICE ONCE
  tumour outcome (control, treated, inhibition, significance): 48%, 18%, 63%, not calculated
Carcinogen: BENZO[A]PYRENE, 50-32-8, 2 MG/D FOR 6 WK (STUDY DURATION: 9 WK), Route [Inhibitor]: GAVAGE, Species: MOUSE, Strain/Sex: NIGP(S)/FEMALE, Target Tissue: Type of Lesion: LUNG: ADENOMA, Dose [Carcinogen]: 0.5 MG INJECTED IN THE SCAPULAR REGION OF NEWBORN MICE ONCE
  tumour outcome (control, treated, inhibition, significance): 35%, 5%, 86%, not calculated
Carcinogen: BENZO[A]PYRENE, 50-32-8, 2 MG/D FOR 6 WK (STUDY DURATION: 9 WK), Route [Inhibitor]: GAVAGE, Species: MOUSE, Strain/Sex: NIGP(S)/MALE, Target Tissue: Type of Lesion: LUNG: ADENOMA, Dose [Carcinogen]: 0.5 MG INJECTED IN THE SCAPULAR REGION OF NEWBORN MICE ONCE
  tumour outcome (control, treated, inhibition, significance): 48%, 5%, 90%, not calculated
Carcinogen: DIETHYLNITROSAMINE, 55-18-5, 300 MG/L IN DRINKING WATER BEGINNING 3 D PRIOR TO FIRST CARCINOGEN DOSE AND CONTINUING TO 14 D POST LAST CARCINOGEN D, Route [Inhibitor]: ORAL, Species: RAT, Strain/Sex: BD6/FEMALE, Target Tissue: Type of Lesion: ESOPHAGUS: TUMOR, Dose [Carcinogen]: 80 MG/KG BW 1/WK FOR 9 WK
  tumour outcome (control, treated, inhibition, significance): 50%, 54%, -8%, not significant
Carcinogen: DIETHYLNITROSAMINE, 55-18-5, 300 MG/L IN DRINKING WATER BEGINNING 3 D PRIOR TO FIRST CARCINOGEN DOSE AND CONTINUING TO 14 D POST LAST CARCINOGEN D, Route [Inhibitor]: ORAL, Species: RAT, Strain/Sex: BD6/FEMALE, Target Tissue: Type of Lesion: LIVER: TUMOR, Dose [Carcinogen]: 80 MG/KG BW 1/WK FOR 9 WK
  tumour outcome (control, treated, inhibition, significance): 100%, 95%, 5%, not significant
